Reference: patent US8242275B2, “Bicyclic pyrazole compounds as antibacterial agents” (Janssen Pharmaceutica NV, priority 2005, dated 2012)
In brackets after ≈: the same amount, converted by molar mass. Counter-ions that a name gives are not always drawn. Like-named read-outs stand apart in the source and are kept apart here.

Legend:
Format in all cases: cell-based
[1] = test system: S. pneumoniae ATCC49619; assay: In vitro antibacterial activity (MIC assay), broth microdilution
Procedure, shortened: (§1)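 Bacteria at roughly 5×10^5 CFU/mL final were grown 16–24 h at 35° C in wells holding 2-fold serial dilutions (11 points) of compound prepared in 100% DMSO, following NCCLS M7-A5. MIC, in μg/mL, is the concentration that stops visible growth relative to untreated wells.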

[2] = test system: S. aureus ATCC13709; assay: as above
Procedure, shortened: as §1

[3] = test system: E. coli ATCC25922; assay: as above; settings: Escherichia coli
Procedure, shortened: as §1

[4] = test system: CipR MRSA OC4222; assay: Resistant strains assay (broth microdilution MIC); settings: Staphylococcus aureus, read-out: MIC, Column G
From the text: Testing protocols followed NCCLS methodology for broth microdilution assays.

[5] = Streptococcus pneumoniae, ATCC49619; read-out: S. pneumoniae ATCC49619 MIC
[6] = Staphylococcus aureus, ATCC13709; read-out: S. aureus ATCC13709 MIC
[7] = obtained with E. coli ATCC25922, read-out: E. coli MIC, data marked (*)

MIC [1, 5] | MIC [2, 6] | MIC [3, 7] | MIC ([4]; CipR MRSA OC4222) | SMILES | MIC ([1]; Streptococcus pneumoniae, ATCC49619, read-out: S. pneumoniae ATCC49619 MIC) | MIC ([2]; Staphylococcus aureus, ATCC13709, read-out: S. aureus ATCC13709 MIC) | MIC ([3]; ATCC25922, read-out: E. coli MIC, data marked (*)) | MIC ([4]; MRSA)
– | – | – | – | COc1ccc2nccc(-n3cc4c(n3)CCC(NC(=O)c3cc5c(cc3C(=O)O)SCC(=O)N5)C4)c2c1 (centres unmarked) [Example 136, 6-[2-(6-Methoxy-quinolin-4-yl)-4,5,6,7-tetrahydro-2H-indazol-5-ylcarbamoyl]-3-oxo-3,4-dihydro-2H-benzo[1,4]thiazine-7-carboxylic acid, potassium salt] | > 16 µg/mL | 1 µg/mL | > 16 µg/mL | 2 µg/mL
4 µg/mL (≈ 8.86 µM) | 1 µg/mL (≈ 2.21 µM) | > 16 µg/mL | 0.5 µg/mL (≈ 1.11 µM) | COc1ccc2nccc(-n3cc4c(n3)CCC(NCCOc3cc(F)cc(F)c3)C4)c2n1 (centres unmarked) [Example 134, [2-(3,5-Difluoro-phenoxy)-ethyl]-[2-(6-methoxy-[1,5]naphthyridin-4-yl)-4,5,6,7-tetrahydro-2H-indazol-5-yl]-amine] | – | – | – | –
> 16 µg/mL | 0.5 µg/mL (≈ 0.895 µM) | > 16 µg/mL | 0.5 µg/mL (≈ 0.895 µM) | CCOC(=O)c1cc2c(cc1C(=O)NC1CCc3nn(-c4ccnc5ccc(OC)nc45)cc3C1)NC(=O)CS2 (centres unmarked) [Example 137, 6-[2-(6-Methoxy-[1,5]naphthyridin-4-yl)-4,5,6,7-tetrahydro-2H-indazol-5-ylcarbamoyl]-3-oxo-3,4-dihydro-2H-benzo[1,4]thiazine-7-carboxylic acid ethyl ester] | – | – | – | –
> 16 µg/mL | 2 µg/mL (≈ 3.59 µM) | > 16 µg/mL | 2 µg/mL (≈ 3.59 µM) | CCOC(=O)c1cc2c(cc1C(=O)NC1CCc3nn(-c4ccnc5ccc(OC)cc45)cc3C1)NC(=O)CS2 (centres unmarked) [Example 135, 6-[2-(6-Methoxy-quinolin-4-yl)-4,5,6,7-tetrahydro-2H-indazol-5-ylcarbamoyl]-3-oxo-3,4-dihydro-2H-benzo[1,4]thiazine-7-carboxylic acid ethyl ester] | – | – | – | –
> 16 µg/mL | 0.25 µg/mL (≈ 0.499 µM) | > 16 µg/mL | 0.25 µg/mL (≈ 0.499 µM) | COc1ccc2nccc(-n3cc4c(n3)CCC(NC(=O)c3cc5c(cc3C)SCC(=O)N5)C4)c2n1 (centres unmarked) [Example 133, 7-Methyl-3-oxo-3,4-dihydro-2H-benzo[1,4]thiazine-6-carboxylic acid [2-(6-methoxy-[1,5]naphthyridin-4-yl)-4,5,6,7-tetrahydro-2H-indazol-5-yl]-amide] | – | – | – | –
